Data reported in paper PMC5459853, “Cathepsin S inhibition combines control of systemic and peripheral pathomechanisms of autoimmune tissue injury” (Scientific Reports, 2017).
Like-named read-outs stand apart in the source and are kept apart here.

Tests used:
[1] = molecular target: T1, Human Cat-K (Homo sapiens, UniProt P43235); assay: Enzymatic isoform-selectivity assay, Cat-K; type: biochemical
T1 sequence (P43235 115-329): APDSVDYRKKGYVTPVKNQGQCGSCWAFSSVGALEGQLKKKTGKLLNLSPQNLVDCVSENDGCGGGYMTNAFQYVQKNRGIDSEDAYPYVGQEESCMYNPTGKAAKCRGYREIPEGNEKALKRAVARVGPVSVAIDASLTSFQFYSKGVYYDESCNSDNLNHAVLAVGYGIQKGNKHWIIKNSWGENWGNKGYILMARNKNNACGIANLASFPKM
Method: (§1) RO5459072 was provided by F. Hoffmann-La Roche, Ltd., Basel, Switzerland. It is a competitive inhibitor of the active site of Cat-S and its nitrile function allows covalent reversible inhibition of Cat-S. The synthesis of RO5459072 has been described in WO 2010121918 and WO 2013068434. Recombinant cathepsins were produced in-house or were purchased from commercial vendors. Initial enzymatic assays to determine isoform-selectivity in vitro were performed as previously described, [23]. […] For this the Cat-S-dependent hydrolysis of the fluorogenic substrate Z-Phe-Arg-AMC (Sigma Aldrich) was followed at various inhibitor concentrations. The active fraction of Cat-S was detemined as 70% with a HPLC assay measuring modification of Cat-S with the covalent inhibitor LHVS. The buffer (100 mM potassium phosphate, 50 mM NaCl, 5 mM EDTA, 5 mM TCEP, pH 6) was thoroughly degassed prior to perfoming measurements to prevent oxidation of the catalytic cystein residue by dissolved oxygen. For the Ki-determination the substrate was employed at 10 µM = KM. All kinetic measurements were performad on a SFM-3000 stopped-flow instrument (Bio-Logic Science Instruments) and data were analyzed with GraphPad Prism v5.

[2] = molecular target: T2, Cat-S in human purified B-cells (Homo sapiens, UniProt P25774); assay: lip10 (p10) accumulation assay in human purified B-cells (p10 ELISA); type: cell-based
T2 construct: Human B-cells were isolated from whole blood; endogenous in cells; host or cells: primary human CD19+ B cells from whole blood of healthy volunteers
T2 sequence (P25774 115-331): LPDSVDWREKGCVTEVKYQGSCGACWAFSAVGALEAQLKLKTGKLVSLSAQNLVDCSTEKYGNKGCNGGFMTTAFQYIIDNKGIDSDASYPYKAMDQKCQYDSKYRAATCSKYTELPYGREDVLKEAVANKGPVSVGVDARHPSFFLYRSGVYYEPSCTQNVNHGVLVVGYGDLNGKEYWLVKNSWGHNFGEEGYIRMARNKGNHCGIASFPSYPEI
Method: Human B-cells were isolated from whole blood using the Whole Blood CD19 Microbeads (Cat#130-090-880, Milteny) with the Whole Blood Column Kit (130-093-545, Milteny) according to the instruction leaflet. Isolated B-cells were adjusted to a cell density of 1 × 10^6 cells/ml in RPMI medium containing 10% FCS and 0.05 mM β-Mercaptoethanol (media and supplements are from Gibco). For each condition 100 µl of cell suspension was transferred into one well of a 96 well cell culture plate, respectively. For detection of p10, cells were treated with different concentrations of RO5459072 for 16 h in a cell culture incubator (37 °C; 5% CO2). Afterwards cells were lysed by adding 100 µl 2x NP-40 lysis buffer (20 mM Tris pH 8.0; 137 mM NaCl; 10% glycerol; 1% NP-40; 2 mM EDTA) containing HALT Protease inhibitor (Cat#78429, Pierce) for 30 min on ice. Before detection of accumulated p10-MHC-II complexes, interfering Ii-MHC-II associates were removed from the cell lysates. […] The CD74-18/3 antibody detects uncleaved invariant chain MHC-II complexes only. Afterwards p10-MHC-II complexes were analyzed by ELISA. For this purpose black Maxisorp plates from NUNC have been coated o/n with PIN.1 (5 µg/ml) from abcam (Cat#ab22603). The next day plates were blocked with blocking buffer for 1 h at 37 °C. Lysates containing 25,000 B-cells per condition were transferred to each well of the ELISA plate respectively and incubated together with the secondary antibody CD74-3/5-Biotin (15 ng/ml) o/n at 4 °C on a shaker. For signal amplification samples were incubated for 30 min with High Sensitive Streptavidin-HRP, 50 ng/ml (Cat#21134, Pierce). The amount of p10 was detected after 30 min of incubation with the QuantaBluTM Fluorogenic Substrate (Cat#15162, Pierce) at 325 nm excitation and 420 nm emission. In between each procedure of the ELISA assay the plates were washed twice with PBS−/− containing 0.05% TWEEN-20.
Supplementary figure 1. Biochemical and pharmacological profile of R05459072. (A)
Upregulation of invariant chain p10 levels in human B-cells was estimated by p10 ELISA, upon
treatment with increasing concentration of RO5459072.
upregulation in B-cells derived from 6 healthy volunteers. […]

[3] = molecular target: Human Cat-L (Homo sapiens, UniProt P07711); assay: Enzymatic isoform-selectivity assay, Cat-L; type: biochemical
Chain of Human Cat-L (P07711 114-333): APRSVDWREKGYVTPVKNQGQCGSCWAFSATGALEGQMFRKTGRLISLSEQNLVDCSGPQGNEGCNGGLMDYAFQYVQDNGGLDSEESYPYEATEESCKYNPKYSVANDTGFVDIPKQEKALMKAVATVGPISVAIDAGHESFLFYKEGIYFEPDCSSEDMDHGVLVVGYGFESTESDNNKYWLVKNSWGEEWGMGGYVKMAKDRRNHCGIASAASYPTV
Method: as §1

For `Cn1cc(-c2ccc(S(=O)(=O)[C@@H]3C[C@@H](C(=O)NC4(C#N)CC4)N(C(=O)C4(C(F)(F)F)CC4)C3)c(C(F)(F)F)c2)cn1` [RO5459072], the IC50 [1] was > 1000 nM, the “IC50, Human Cat-K” value [1] was “No sub-micro molar inhibition” and the EC50 ([2]; average of 6 healthy volunteers, 16 h treatment, read-out: EC50 of lip10 (p10) induction in human B-cells, average) was 15.8 nM. For the same compound, the EC50 ([2]; donor D1, read-out: EC50 of p10 upregulation in human B-cells, donor D1) was 26.4 nM, the EC50 ([2]; donor D2, read-out: EC50 of p10 upregulation in human B-cells, donor D2) was 15.8 nM and the EC50 ([2]; donor D3, read-out: EC50 of p10 upregulation in human B-cells, donor D3) was 19.1 nM. The EC50 ([2]; donor D4, read-out: EC50 of p10 upregulation in human B-cells, donor D4) was 9.4 nM, the EC50 ([2]; donor D5, read-out: EC50 of p10 upregulation in human B-cells, donor D5) was 12.6 nM and the EC50 ([2]; donor D6, read-out: EC50 of p10 upregulation in human B-cells, donor D6) was 11.5 nM. For the same compound, the IC50 [3] was > 1000 nM and the “IC50, Human Cat-L” value [3] was “No sub-micro molar inhibition”.
